Columns and labels:
[1] = Post-UVA residual S-59 concentration in FCV-spiked platelets (HPLC); type: physicochemical; conditions: for Post-UVA S-59 concentration: UVA ~3 J/cm^2
Method: An additional study was performed to evaluate the level of FCV inactivation with decreasing amounts of S-59 after extended incubation (e.g., pre-incubation) in PAS/Plasma. In this study, platelets in PAS/Plasma (65%/35%) were spiked with a stock of FCV at a 1:100 dilution. The FCV-spiked platelets were then split into 16 separate test units. Each unit was dosed with S-59 at approximately 150 μM, 90 μM, 30 μM or 15 μM concentration. Following the addition of S-59 in one of four dosing groups, the platelet units in each dosing group were incubated for 0, 4, 8 or 24 hr prior to illumination. A control sample was taken from each unit for virus titer determination and HPLC analysis of S-59 concentration pre-UVA treatment, followed by UVA light exposure at ˜3 J/cm^2 for photochemical treatment of the test samples. Following UVA treatment, the control and test samples were evaluated for inactivation of FCV using a standard virological plaque assay.
HPLC analysis also was performed to determine the amount (e.g., concentration) of S-59 remaining in samples after UVA illumination and photoconversion (Table 10).

[2] = test system: Caliciviruses, such as feline calicivirus (FCV); conditions: photochemical inactivation, Irsch et al. 2011; cited from earlier work

## Cc1oc2c(C)c3oc(=O)cc(C)c3cc2c1COCCN [S-59, 3-(2-aminoethoxymethyl)-2,5,9-trimethylfuro[3,2-g]chromen-7-one]
[1]; Input S-59 15 μM, pre-incubation 0 hr
  Post-UVA S-59 concentration: 3 µM
[1]; Input S-59 15 μM, pre-incubation 4 hr
  Post-UVA S-59 concentration: 2 µM
[1]; Input S-59 15 μM, pre-incubation 8 hr
  Post-UVA S-59 concentration: 2 µM
[1]; Input S-59 15 μM, pre-incubation 24 hr
  Post-UVA S-59 concentration: 2 µM
[1]; Input S-59 30 μM, pre-incubation 0 hr
  Post-UVA S-59 concentration: 5 µM
[1]; Input S-59 30 μM, pre-incubation 4 hr
  Post-UVA S-59 concentration: 2 µM
[1]; Input S-59 30 μM, pre-incubation 8 hr
  Post-UVA S-59 concentration: 2 µM
[1]; Input S-59 30 μM, pre-incubation 24 hr
  Post-UVA S-59 concentration: 3 µM
[1]; Input S-59 90 μM, pre-incubation 0 hr
  Post-UVA S-59 concentration: 14 µM
[1]; Input S-59 90 μM, pre-incubation 4 hr
  Post-UVA S-59 concentration: 10 µM
[1]; Input S-59 90 μM, pre-incubation 8 hr
  Post-UVA S-59 concentration: 11 µM
[1]; Input S-59 90 μM, pre-incubation 24 hr
  Post-UVA S-59 concentration: 9 µM
[1]; Input S-59 150 μM, pre-incubation 0 hr
  Post-UVA S-59 concentration: 29 µM
[1]; Input S-59 150 μM, pre-incubation 4 hr
  Post-UVA S-59 concentration: 33 µM
[1]; Input S-59 150 μM, pre-incubation 8 hr
  Post-UVA S-59 concentration: 22 µM
[1]; Input S-59 150 μM, pre-incubation 24 hr
  Post-UVA S-59 concentration: 19 µM
[1]; S-59 dosing groups with pre-incubation, levels reached
  residual S-59 concentration post-treatment: less than 5 μM
[1]; conditions giving high levels of inactivation (e.g., >4 logs)
  residual S-59 concentration: 2 µM
[2]
  log10 reduction in titer: 1.7-2.4 log10

Source: patent US20190085289A1, “COMPOSITIONS AND METHODS FOR PATHOGEN INACTIVATION OF PLATELETS” (Cerus Corporation, priority 2017, published 2019)
